Publication PMC5218480 (PLoS ONE, 2017)

Tested on: MV-4-11 cells
Test: Gene expression microarray analysis (Affymetrix PrimeView) and GSEA
Format: cell-based, human
Set-up: RFU PODN (11730768_x_at) / Fold change /veh PODN (11730768_x_at) / RFU LINC00158 (11744669_a_at) / Fold change /veh LINC00158 (11744669_a_at) / RFU DUSP10 (11751237_a_at) / Fold change /veh DUSP10 (11751237_a_at) / RFU ID3 (11757404_x_at) / Fold change /veh ID3 (11757404_x_at) / RFU PLEKHG5 (11737974_s_at) / Fold change /veh PLEKHG5 (11737974_s_at) / RFU LRRC4B (11730491_at) / Fold change /veh LRRC4B (11730491_at) / RFU GIMAP4 (11747438_a_at) / Fold change /veh GIMAP4 (11747438_a_at) / RFU KRT8 (11758183_x_at) / Fold change /veh KRT8 (11758183_x_at) / RFU CNN1 (11734310_a_at) / Fold change /veh CNN1 (11734310_a_at) / RFU VPS37D (11726825_at) / Fold change /veh VPS37D (11726825_at) / RFU C10orf10 (11716522_x_at) / Fold change /veh C10orf10 (11716522_x_at) / RFU KIR2DL2 /// KIR2DL4 /// KIR2DL5A /// KIR2DL5B /// KIR2DS1 /// KIR2DS2 /// KIR2DS3 /// KIR2DS4 /// KIR3DL3 /// KIR3DL3 /// KIR3DS1 (11738374_at) / Fold change /veh KIR2DL2 /// KIR2DL4 /// KIR2DL5A /// KIR2DL5B /// KIR2DS1 /// KIR2DS2 /// KIR2DS3 /// KIR2DS4 /// KIR3DL3 /// KIR3DL3 /// KIR3DS1 (11738374_at) / RFU C1QL1 (11718748_at) / Fold change /veh C1QL1 (11718748_at) / RFU TMPRSS4 (11747572_a_at) / Fold change /veh TMPRSS4 (11747572_a_at) / RFU HAMP (11756126_x_at) / Fold change /veh HAMP (11756126_x_at) / RFU RNFT2 (11725882_a_at) / Fold change /veh RNFT2 (11725882_a_at) / RFU NR4A2 (11747474_a_at) / Fold change /veh NR4A2 (11747474_a_at) / RFU ABCC12 (11746883_a_at) / Fold change /veh ABCC12 (11746883_a_at) / RFU TMEM136 (11760407_x_at) / Fold change /veh TMEM136 (11760407_x_at) / RFU CLDN22 /// WWC2 (11732394_at) / Fold change /veh CLDN22 /// WWC2 (11732394_at) / RFU HLA-DPB1 (11760878_x_at) / Fold change /veh HLA-DPB1 (11760878_x_at) / RFU SPINT1 (11716480_a_at) / Fold change /veh SPINT1 (11716480_a_at) / RFU GAP43 (11754022_s_at) / Fold change /veh GAP43 (11754022_s_at) / RFU A4GNT (11735810_at) / Fold change /veh A4GNT (11735810_at) / RFU PRB3 (11715151_x_at) / Fold change /veh PRB3 (11715151_x_at) / RFU TUBB4B (11761932_at) / Fold change /veh TUBB4B (11761932_at) / RFU CAPN14 (11732068_a_at) / Fold change /veh CAPN14 (11732068_a_at) / RFU TMCC2 (11721928_a_at) / Fold change /veh TMCC2 (11721928_a_at) / RFU IRGQ (11745062_a_at) / Fold change /veh IRGQ (11745062_a_at) / RFU FAM174B (11720279_a_at) / Fold change /veh FAM174B (11720279_a_at) / RFU TMPRSS4 (11748680_a_at) / Fold change /veh TMPRSS4 (11748680_a_at) / RFU FAM212B (11763350_a_at) / Fold change /veh FAM212B (11763350_a_at) / RFU PLEKHG5 (11743358_a_at) / Fold change /veh PLEKHG5 (11743358_a_at) / RFU ZSCAN30 (11745921_a_at) / Fold change /veh ZSCAN30 (11745921_a_at) / RFU CMKLR1 (11741424_a_at) / Fold change /veh CMKLR1 (11741424_a_at) / RFU LOC101060620 /// MAPK8IP1 (11723275_at) / Fold change /veh LOC101060620 /// MAPK8IP1 (11723275_at) / RFU SPTSSB (11747773_x_at) / Fold change /veh SPTSSB (11747773_x_at) / RFU PRSS12 (11739890_at) / Fold change /veh PRSS12 (11739890_at) / RFU BIN1 (11741810_x_at) / Fold change /veh BIN1 (11741810_x_at) / RFU WNT11 (11732464_a_at) / Fold change /veh WNT11 (11732464_a_at) / RFU C10orf10 (11716521_a_at) / Fold change /veh C10orf10 (11716521_a_at) / RFU C5orf56 (11738089_at) / Fold change /veh C5orf56 (11738089_at) / RFU CYB561 (11721691_x_at) / Fold change /veh CYB561 (11721691_x_at) / RFU ANKRD19P (11752326_a_at) / Fold change /veh ANKRD19P (11752326_a_at) / RFU OR2T12 /// OR2T33 /// OR2T8 (11738714_s_at) / Fold change /veh OR2T12 /// OR2T33 /// OR2T8 (11738714_s_at) / RFU VCAN (11748164_a_at) / Fold change /veh VCAN (11748164_a_at) / RFU JSRP1 (11732532_at) / Fold change /veh JSRP1 (11732532_at) / RFU KRTAP10-11 (11738290_x_at) / Fold change /veh KRTAP10-11 (11738290_x_at) / RFU MYO3A (11730013_a_at) / Fold change /veh MYO3A (11730013_a_at) / RFU EBF3 (11725865_a_at) / Fold change /veh EBF3 (11725865_a_at) / RFU CAMK2N1 (11719241_x_at) / Fold change /veh CAMK2N1 (11719241_x_at) / RFU C5orf56 (11738088_a_at) / Fold change /veh C5orf56 (11738088_a_at) / RFU OLFML3 (11715873_a_at) / Fold change /veh OLFML3 (11715873_a_at) / RFU LOC100653217 /// NTM (11731650_a_at) / Fold change /veh LOC100653217 /// NTM (11731650_a_at) / RFU MAPK11 (11762145_a_at) / Fold change /veh MAPK11 (11762145_a_at) / RFU FIZ1 (11724087_x_at) / Fold change /veh FIZ1 (11724087_x_at) / RFU OASL (11726364_x_at) / Fold change /veh OASL (11726364_x_at) / RFU SOX15 (11748057_x_at) / Fold change /veh SOX15 (11748057_x_at) / RFU CD79A (11719716_a_at) / Fold change /veh CD79A (11719716_a_at) / RFU HIST1H1D (11736915_at) / Fold change /veh HIST1H1D (11736915_at) / RFU CASKIN2 (11723855_a_at) / Fold change /veh CASKIN2 (11723855_a_at) / RFU LOC730098 (11760151_x_at) / Fold change /veh LOC730098 (11760151_x_at) / RFU OR4N2 (11742367_at) / Fold change /veh OR4N2 (11742367_at) / RFU PRRT2 (11749266_a_at) / Fold change /veh PRRT2 (11749266_a_at) / RFU SNX32 (11753110_a_at) / Fold change /veh SNX32 (11753110_a_at) / RFU CDHR5 (11726645_a_at) / Fold change /veh CDHR5 (11726645_a_at) / RFU RCAN1 (11760418_a_at) / Fold change /veh RCAN1 (11760418_a_at) / RFU FAM167A (11723789_a_at) / Fold change /veh FAM167A (11723789_a_at) / RFU FAM26E (11764081_at) / Fold change /veh FAM26E (11764081_at) / RFU ISYNA1 (11749810_s_at) / Fold change /veh ISYNA1 (11749810_s_at) / RFU ACY1 (11761880_at) / Fold change /veh ACY1 (11761880_at) / RFU 11764098_at / Fold change /veh 11764098_at / RFU SAMD14 (11745864_x_at) / Fold change /veh SAMD14 (11745864_x_at) / RFU NPB (11741838_a_at) / Fold change /veh NPB (11741838_a_at) / RFU TMPRSS6 (11731388_a_at) / Fold change /veh TMPRSS6 (11731388_a_at) / RFU KRTAP10-2 (11738614_at) / Fold change /veh KRTAP10-2 (11738614_at) / RFU ARHGAP8 /// PRR5-ARHGAP8 (11727945_x_at) / Fold change /veh ARHGAP8 /// PRR5-ARHGAP8 (11727945_x_at) / RFU KRTAP5-7 /// NADSYN1 (11734609_at) / Fold change /veh KRTAP5-7 /// NADSYN1 (11734609_at) / RFU RASL12 (11751679_a_at) / Fold change /veh RASL12 (11751679_a_at) / RFU CDKN2B (11736163_a_at) / Fold change /veh CDKN2B (11736163_a_at) / RFU PRF1 (11729649_at) / Fold change /veh PRF1 (11729649_at) / RFU, ZNF638 /// ZNF638-IT1 / Fold change vs veh, ZNF638 /// ZNF638-IT1 / RFU, PANK3 / Fold change vs veh, PANK3 / RFU, SH3YL1 / Fold change vs veh, SH3YL1 / RFU, ZEB2 / Fold change vs veh, ZEB2 / RFU, NRIP1 / Fold change vs veh, NRIP1 / RFU, PTTG1IP / Fold change vs veh, PTTG1IP / RFU, CAPN2 / Fold change vs veh, CAPN2 / RFU, MED14 / Fold change vs veh, MED14 / RFU, SNORA58 / Fold change vs veh, SNORA58 / RFU, C1orf63 / Fold change vs veh, C1orf63 / RFU, LRRFIP1 / Fold change vs veh, LRRFIP1 / RFU, NDUFAF7 / Fold change vs veh, NDUFAF7 / RFU, SLC12A2 / Fold change vs veh, SLC12A2 / RFU, IBTK / Fold change vs veh, IBTK / RFU, ESF1 / Fold change vs veh, ESF1 / Fold change vs veh, TMEM50B / RFU, TAOK1 / Fold change vs veh, TAOK1 / RFU, ACBD3 / Fold change vs veh, ACBD3 / RFU, TMA16 / Fold change vs veh, TMA16 / RFU, RWDD3 / Fold change vs veh, RWDD3 / RFU, BCAT1 / Fold change vs veh, BCAT1 / RFU, EDEM3 / Fold change vs veh, EDEM3 / RFU, TMEM33 / Fold change vs veh, TMEM33 / RFU, WDR75 / Fold change vs veh, WDR75 / RFU, AHCTF1 / Fold change vs veh, AHCTF1 / RFU, TFRC / Fold change vs veh, TFRC / RFU, ZDHHC17 / Fold change vs veh, ZDHHC17 / RFU, NOM1 / Fold change vs veh, NOM1 / RFU, ARL8B / Fold change vs veh, ARL8B / RFU, ZBTB11 / Fold change vs veh, ZBTB11 / RFU, TAMM41 / Fold change vs veh, TAMM41 / RFU, KIAA1704 /// LOC100996395 / Fold change vs veh, KIAA1704 /// LOC100996395 / RFU, ING1 / Fold change vs veh, ING1 / RFU, TRMT61B / Fold change vs veh, TRMT61B / RFU, FUBP3 / Fold change vs veh, FUBP3 / RFU, TP53 / Fold change vs veh, TP53 / RFU, TNKS2 / Fold change vs veh, TNKS2 / RFU, ZFP14 / Fold change vs veh, ZFP14 / RFU, ACTR2 / Fold change vs veh, ACTR2 / RFU, PPP3R1 / Fold change vs veh, PPP3R1 / RFU, PIK3R1 / Fold change vs veh, PIK3R1 / RFU, HNRNPA1 / Fold change vs veh, HNRNPA1 / RFU, RNF170 / Fold change vs veh, RNF170 / RFU, ZNF28 / Fold change vs veh, ZNF28 / RFU, RNGTT / Fold change vs veh, RNGTT / RFU, OGT / Fold change vs veh, OGT / RFU, BRD1 / Fold change vs veh, BRD1 / RFU, MARS / Fold change vs veh, MARS / RFU, ZNF655 / Fold change vs veh, ZNF655 / RFU, FAHD1 / Fold change vs veh, FAHD1 / RFU, BDP1 / Fold change vs veh, BDP1 / RFU, LRRCC1 / Fold change vs veh, LRRCC1 / RFU, ARID1A / Fold change vs veh, ARID1A / RFU, ZNF146 / Fold change vs veh, ZNF146 / RFU, ZNF330 / Fold change vs veh, ZNF330 / RFU, GPN3 / Fold change vs veh, GPN3 / RFU, C9orf123 / Fold change vs veh, C9orf123 / RFU, N4BP2L2 / Fold change vs veh, N4BP2L2 / RFU, ARFIP1 / Fold change vs veh, ARFIP1 / RFU, FAM179B / Fold change vs veh, FAM179B / RFU, BCL10 / Fold change vs veh, BCL10 / RFU, UHRF1BP1L / Fold change vs veh, UHRF1BP1L / RFU, BET1 / Fold change vs veh, BET1 / RFU, CNOT2 / Fold change vs veh, CNOT2 / RFU, ZNF268 / Fold change vs veh, ZNF268 / Fold change vs veh, ZNF507 / RFU, DGCR2 / Fold change vs veh, DGCR2 / RFU, WDSUB1 / Fold change vs veh, WDSUB1 / Fold change vs veh, HSP90B1 /// MIR3652 / RFU, ADSS / Fold change vs veh, ADSS / RFU, GK / Fold change vs veh, GK / RFU, ZNF148 / Fold change vs veh, ZNF148 / RFU, TAF9 / Fold change vs veh, TAF9 / RFU, SLC1A5 / Fold change vs veh, SLC1A5 / RFU, SLMO2 / Fold change vs veh, SLMO2 / RFU, ABCC4 / Fold change vs veh, ABCC4 / RFU, LOC101060439 /// RAP1B / Fold change vs veh, LOC101060439 /// RAP1B / RFU, RFX7 / Fold change vs veh, RFX7 / RFU, GTPBP10 / Fold change vs veh, GTPBP10 / RFU, CNEP1R1 / Fold change vs veh, CNEP1R1 / RFU, BIVM-ERCC5 /// ERCC5 / Fold change vs veh, BIVM-ERCC5 /// ERCC5 / RFU, ILF3 / Fold change vs veh, ILF3 / RFU 11762660_at / Fold change /veh 11762660_at / RFU VCAN (11757783_s_at) / Fold change /veh VCAN (11757783_s_at) / RFU DDX43 (11728927_at) / Fold change /veh DDX43 (11728927_at) / RFU KRT8 (11758188_x_at) / Fold change /veh KRT8 (11758188_x_at) / RFU NKD1 (11759106_at) / Fold change /veh NKD1 (11759106_at) / RFU SRD5A1 (11742802_a_at) / Fold change /veh SRD5A1 (11742802_a_at) / RFU TPSAB1 /// TPSB2 (11721975_s_at) / Fold change /veh TPSAB1 /// TPSB2 (11721975_s_at) / RFU GSTM3 (11746129_a_at) / Fold change /veh GSTM3 (11746129_a_at) / RFU IL23R (11737362_x_at) / Fold change /veh IL23R (11737362_x_at) / RFU TMEM51 (11727254_a_at) / Fold change /veh TMEM51 (11727254_a_at) / RFU PIWIL2 (11732686_x_at) / Fold change /veh PIWIL2 (11732686_x_at) / RFU ORM1 (11744905_x_at) / Fold change /veh ORM1 (11744905_x_at) / RFU CCDC152 (11743942_at) / Fold change /veh CCDC152 (11743942_at) / RFU ECM1 (11717891_a_at) / Fold change /veh ECM1 (11717891_a_at) / RFU IL23R (11748794_a_at) / Fold change /veh IL23R (11748794_a_at) / RFU TNFAIP8L3 (11732012_x_at) / Fold change /veh TNFAIP8L3 (11732012_x_at) / RFU MBOAT4 (11741988_at) / Fold change /veh MBOAT4 (11741988_at) / RFU 11764193_at / Fold change /veh 11764193_at / RFU TMEM53 (11763286_at) / Fold change /veh TMEM53 (11763286_at) / RFU MAGEB2 (11727129_at) / Fold change /veh MAGEB2 (11727129_at) / RFU TMEM200A (11744735_a_at) / Fold change /veh TMEM200A (11744735_a_at) / RFU CCDC152 (11751479_a_at) / Fold change /veh CCDC152 (11751479_a_at) / RFU FAM211A (11726209_a_at) / Fold change /veh FAM211A (11726209_a_at) / RFU RGS16 (11746705_a_at) / Fold change /veh RGS16 (11746705_a_at) / RFU VCAN (11755009_s_at) / Fold change /veh VCAN (11755009_s_at) / RFU RHOB (11743442_s_at) / Fold change /veh RHOB (11743442_s_at) / RFU RGS16 (11720943_a_at) / Fold change /veh RGS16 (11720943_a_at) / RFU RGS16 (11720944_at) / Fold change /veh RGS16 (11720944_at) / RFU, VPS4B / Fold change vs veh, VPS4B / RFU, CREB1 / Fold change vs veh, CREB1 / RFU, DNAJC13 / Fold change vs veh, DNAJC13 / RFU, GNAQ / Fold change vs veh, GNAQ / RFU, CDK5R1 / Fold change vs veh, CDK5R1 / RFU, ZRANB3 / Fold change vs veh, ZRANB3 / RFU, CUL4A / Fold change vs veh, CUL4A / RFU, CCNY / Fold change vs veh, CCNY / RFU, UFL1 / Fold change vs veh, UFL1 / RFU, COG3 / Fold change vs veh, COG3 / RFU, DIAPH2 / Fold change vs veh, DIAPH2 / RFU, SKA2 / Fold change vs veh, SKA2 / RFU, AFF3 / Fold change vs veh, AFF3 / RFU, LMF1 / Fold change vs veh, LMF1 / RFU, IPO11 / Fold change vs veh, IPO11 / RFU, DFFB / Fold change vs veh, DFFB / RFU, FOXP1 / Fold change vs veh, FOXP1 / RFU, CARD8 / Fold change vs veh, CARD8 / RFU, STRN3 / Fold change vs veh, STRN3 / RFU, ADK / Fold change vs veh, ADK / RFU, RASSF2 / Fold change vs veh, RASSF2 / RFU, WIPF1 / Fold change vs veh, WIPF1 / RFU, LARP1B / Fold change vs veh, LARP1B / RFU, RASA1 / Fold change vs veh, RASA1 / RFU, RB1 / Fold change vs veh, RB1 / RFU, PPFIA1 / Fold change vs veh, PPFIA1 / RFU, MAT2A / Fold change vs veh, MAT2A / RFU, CCT5 / Fold change vs veh, CCT5 / RFU, WDR92 / Fold change vs veh, WDR92 / RFU, CUX1 / Fold change vs veh, CUX1 / RFU, TTC7A / Fold change vs veh, TTC7A / RFU, TMEM135 / Fold change vs veh, TMEM135 / RFU, DEPTOR / Fold change vs veh, DEPTOR / RFU, CPM / Fold change vs veh, CPM / RFU, DNAJB6 / Fold change vs veh, DNAJB6 / RFU, CACNA2D3 / Fold change vs veh, CACNA2D3 / RFU, DTX4 / Fold change vs veh, DTX4 / RFU, TFCP2 / Fold change vs veh, TFCP2 / RFU, GMCL1 /// GMCL1P1 / Fold change vs veh, GMCL1 /// GMCL1P1 / RFU, AEBP2 / Fold change vs veh, AEBP2 / RFU, SNHG1 /// SNORD22 /// SNORD25 /// SNORD26 /// SNORD27 /// SNORD28 /// SNORD29 /// SNORD31 / Fold change vs veh, SNHG1 /// SNORD22 /// SNORD25 /// SNORD26 /// SNORD27 /// SNORD28 /// SNORD29 /// SNORD31 / Fold change (Aza/veh), C12orf56 (ProbeSet 11735607_a_at) / Fold change (ACY-1035/veh), C12orf56 (ProbeSet 11735607_a_at) / Fold change (Aza/veh), FGFR1OP (ProbeSet 11751329_s_at) / Fold change (ACY-1035/veh), FGFR1OP (ProbeSet 11751329_s_at) / Fold change (Aza/veh), VPS36 (ProbeSet 11739960_a_at) / Fold change (ACY-1035/veh), VPS36 (ProbeSet 11739960_a_at) / RFU SYPL1 (11715823_x_at) / Fold change /veh SYPL1 (11715823_x_at) / RFU IGFBP7 (11715501_s_at) / Fold change /veh IGFBP7 (11715501_s_at) / RFU REEP3 (11722064_at) / Fold change /veh REEP3 (11722064_at) / RFU IGLL1 (11728026_x_at) / Fold change /veh IGLL1 (11728026_x_at): dose or concentration left out as unconfirmed
Details: ProbeSet 11727827_x_at; LIST B

Nc1ccc(-c2cccs2)cc1NC(=O)c1ccc2c(c1)cc(C1CC1)n2CCN1CCOCC1 [ACY-1035]
RFU, NDUFAF7: 59.45 RFU
